Like-named read-outs stand apart in the source and are kept apart here.

For experiment [1], the target named is EGFR del19/T790M/C797S (Homo sapiens, UniProt P00533, C797S/DEL746-750/T790M). The experiment is described as follows: Biochemical EGFR kinase assay (Lance Ultra TR-FRET), triple mutant del19/T790M/C797S. Summed up:
(§1)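 Kinase activity is measured by TR-FRET phosphopeptide detection. Compounds span 0.003 μM to 10 μM; the 1 h reaction at room temperature is quenched with EDTA, then labelled antibody (2 nM) is incubated 60 min before reading.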
Background: Time-resolved FRET reads energy transfer from a long-lived donor to a nearby acceptor.

The target of experiment [2] is EGFR L858R/T790M/C797S (Homo sapiens, UniProt P00533, C797S/L858R/T790M). Put plainly: Biochemical EGFR kinase assay (Lance Ultra TR-FRET), triple mutant L858R/T790M/C797S. Summed up:
as §1

In experiment [3] the target is EGFR del19/C797S (Homo sapiens, UniProt P00533, C797S/DEL746-750). Put plainly: Biochemical EGFR kinase assay (Lance Ultra TR-FRET), double mutant del19/C797S. Summed up: as §1
Chain of EGFR del19/C797S (P00533 with tags, fused parts or gaps DEL746-750/C797S): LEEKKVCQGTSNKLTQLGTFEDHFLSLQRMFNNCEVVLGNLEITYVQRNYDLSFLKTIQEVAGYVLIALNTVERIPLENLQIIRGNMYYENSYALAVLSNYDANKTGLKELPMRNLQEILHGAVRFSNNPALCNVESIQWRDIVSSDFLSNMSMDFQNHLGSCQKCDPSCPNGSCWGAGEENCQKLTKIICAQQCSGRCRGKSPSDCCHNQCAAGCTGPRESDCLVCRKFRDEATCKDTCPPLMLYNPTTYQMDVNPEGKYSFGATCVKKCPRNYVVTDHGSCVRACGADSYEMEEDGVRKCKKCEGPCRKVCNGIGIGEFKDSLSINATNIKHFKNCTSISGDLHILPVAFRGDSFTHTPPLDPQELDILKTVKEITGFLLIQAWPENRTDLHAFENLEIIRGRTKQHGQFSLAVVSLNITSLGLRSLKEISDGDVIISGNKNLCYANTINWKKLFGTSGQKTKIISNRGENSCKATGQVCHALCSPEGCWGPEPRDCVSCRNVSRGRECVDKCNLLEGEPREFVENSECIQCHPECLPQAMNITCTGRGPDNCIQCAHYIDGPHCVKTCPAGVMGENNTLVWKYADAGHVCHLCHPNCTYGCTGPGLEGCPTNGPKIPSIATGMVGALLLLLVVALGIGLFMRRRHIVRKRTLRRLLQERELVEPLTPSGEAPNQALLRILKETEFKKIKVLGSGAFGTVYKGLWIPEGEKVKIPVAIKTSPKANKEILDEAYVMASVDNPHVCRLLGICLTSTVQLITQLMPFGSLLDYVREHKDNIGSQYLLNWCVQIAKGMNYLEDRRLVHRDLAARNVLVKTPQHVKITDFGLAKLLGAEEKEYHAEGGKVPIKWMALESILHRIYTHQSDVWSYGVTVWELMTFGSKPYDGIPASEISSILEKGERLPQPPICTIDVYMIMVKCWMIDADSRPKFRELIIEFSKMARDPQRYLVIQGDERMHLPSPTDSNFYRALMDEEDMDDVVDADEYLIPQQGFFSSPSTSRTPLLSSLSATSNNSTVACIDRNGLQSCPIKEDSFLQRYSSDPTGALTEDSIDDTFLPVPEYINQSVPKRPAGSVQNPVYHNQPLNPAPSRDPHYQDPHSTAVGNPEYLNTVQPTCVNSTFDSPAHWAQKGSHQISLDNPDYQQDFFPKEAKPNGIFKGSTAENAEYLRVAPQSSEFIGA
Experiment [4] deals with EGFR L858R/C797S (Homo sapiens, UniProt P00533, C797S/L858R). Put plainly: Biochemical EGFR kinase assay (Lance Ultra TR-FRET), double mutant L858R/C797S. Summed up:
as §1

The target of experiment [5] is EGFR wildtype (WT) (Homo sapiens, UniProt P00533). Put plainly: Biochemical EGFR kinase assay (Lance Ultra TR-FRET), wildtype. The method in brief:
as §1

[6] abbreviates: IC50 del19/T790M/C797S (nM) 100 μM ATP, 100 μM ATP.
Setting [7] is: Km ATP, read-out: IC50 del19/T790M/C797S (nM) Km ATP.
The mark [8] stands for this setting: IC50 L858R/T790M/C797S (nM) 100 μM ATP, 100 μM ATP.
[9] abbreviates: Km ATP, read-out: IC50 L858R/T790M/C797S (nM) Km ATP.
Where [10] appears, read: IC50 del19/C797S (nM) 100 μM ATP, 100 μM ATP.
Where [11] appears, read: Km ATP, read-out: IC50 del19/C797S (nM) Km ATP.
[12] abbreviates: IC50 L858R/C797S (nM) 100 μM ATP, 100 μM ATP.
Where [13] appears, read: Km ATP, read-out: IC50 L858R/C797S (nM) Km ATP.
Where [14] appears, read: IC50 WT (nM) 100 μM ATP, 100 μM ATP.
Setting [15] is: Km ATP, read-out: IC50 WT (nM) Km ATP.

Chain of EGFR wildtype (WT) (P00533 25-1210): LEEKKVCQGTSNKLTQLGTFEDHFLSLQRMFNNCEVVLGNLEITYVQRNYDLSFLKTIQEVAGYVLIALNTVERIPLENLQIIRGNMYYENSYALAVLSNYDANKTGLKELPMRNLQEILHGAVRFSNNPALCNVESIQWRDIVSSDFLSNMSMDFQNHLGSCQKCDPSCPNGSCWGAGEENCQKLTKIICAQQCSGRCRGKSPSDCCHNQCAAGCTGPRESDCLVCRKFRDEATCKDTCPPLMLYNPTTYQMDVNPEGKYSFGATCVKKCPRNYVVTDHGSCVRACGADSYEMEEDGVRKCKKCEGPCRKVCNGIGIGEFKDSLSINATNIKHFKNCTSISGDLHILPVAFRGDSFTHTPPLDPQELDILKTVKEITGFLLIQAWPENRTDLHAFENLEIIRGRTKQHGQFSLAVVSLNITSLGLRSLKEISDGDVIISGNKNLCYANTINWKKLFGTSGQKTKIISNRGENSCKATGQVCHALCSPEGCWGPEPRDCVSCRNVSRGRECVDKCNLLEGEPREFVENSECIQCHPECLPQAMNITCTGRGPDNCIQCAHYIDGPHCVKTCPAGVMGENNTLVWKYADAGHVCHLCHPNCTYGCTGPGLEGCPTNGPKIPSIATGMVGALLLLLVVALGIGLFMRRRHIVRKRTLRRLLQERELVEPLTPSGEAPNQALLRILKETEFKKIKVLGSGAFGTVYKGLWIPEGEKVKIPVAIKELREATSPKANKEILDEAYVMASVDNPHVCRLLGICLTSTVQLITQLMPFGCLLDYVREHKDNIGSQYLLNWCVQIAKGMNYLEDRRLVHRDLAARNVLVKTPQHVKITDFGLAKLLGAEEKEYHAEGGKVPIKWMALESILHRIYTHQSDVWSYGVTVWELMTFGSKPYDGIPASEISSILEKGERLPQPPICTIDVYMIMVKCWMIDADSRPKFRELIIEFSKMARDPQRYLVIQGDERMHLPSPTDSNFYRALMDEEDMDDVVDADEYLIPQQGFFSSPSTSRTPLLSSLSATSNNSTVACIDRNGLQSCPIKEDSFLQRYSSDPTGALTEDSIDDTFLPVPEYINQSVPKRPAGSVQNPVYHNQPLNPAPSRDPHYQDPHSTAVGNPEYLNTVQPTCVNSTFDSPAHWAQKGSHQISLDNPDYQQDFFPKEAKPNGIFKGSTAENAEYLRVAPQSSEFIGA
Chain of EGFR del19/T790M/C797S (P00533 with tags, fused parts or gaps DEL746-750/T790M/C797S): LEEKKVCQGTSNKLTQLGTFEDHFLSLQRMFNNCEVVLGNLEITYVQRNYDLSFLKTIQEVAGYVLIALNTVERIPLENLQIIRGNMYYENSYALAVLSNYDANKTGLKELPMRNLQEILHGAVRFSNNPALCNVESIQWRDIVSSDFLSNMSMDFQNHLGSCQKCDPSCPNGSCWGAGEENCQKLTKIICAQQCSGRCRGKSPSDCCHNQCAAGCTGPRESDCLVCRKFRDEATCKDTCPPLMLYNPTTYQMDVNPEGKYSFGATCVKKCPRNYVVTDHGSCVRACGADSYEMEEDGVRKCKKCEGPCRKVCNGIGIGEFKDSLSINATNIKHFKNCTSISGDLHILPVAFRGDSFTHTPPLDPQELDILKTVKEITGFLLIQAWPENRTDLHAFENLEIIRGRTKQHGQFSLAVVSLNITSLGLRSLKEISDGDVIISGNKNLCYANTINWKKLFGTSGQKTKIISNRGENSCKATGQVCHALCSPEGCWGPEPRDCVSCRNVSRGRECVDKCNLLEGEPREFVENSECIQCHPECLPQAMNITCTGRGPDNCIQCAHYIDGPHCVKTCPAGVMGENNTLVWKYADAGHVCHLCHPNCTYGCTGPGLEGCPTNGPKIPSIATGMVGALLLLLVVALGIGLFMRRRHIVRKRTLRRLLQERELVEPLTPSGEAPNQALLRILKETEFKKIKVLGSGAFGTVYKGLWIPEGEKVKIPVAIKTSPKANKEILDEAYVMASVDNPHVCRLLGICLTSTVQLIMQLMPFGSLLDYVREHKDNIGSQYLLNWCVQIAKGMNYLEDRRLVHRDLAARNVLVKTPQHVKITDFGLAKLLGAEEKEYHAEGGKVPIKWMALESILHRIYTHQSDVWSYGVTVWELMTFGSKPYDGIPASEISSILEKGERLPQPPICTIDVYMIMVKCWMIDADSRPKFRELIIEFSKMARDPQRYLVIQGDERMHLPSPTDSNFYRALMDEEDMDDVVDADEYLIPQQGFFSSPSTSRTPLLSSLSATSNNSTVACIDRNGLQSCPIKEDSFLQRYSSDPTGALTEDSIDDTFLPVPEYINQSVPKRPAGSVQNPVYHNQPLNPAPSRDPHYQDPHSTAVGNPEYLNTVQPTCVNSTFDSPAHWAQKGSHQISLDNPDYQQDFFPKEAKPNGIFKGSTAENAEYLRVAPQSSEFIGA
Chain of EGFR L858R/C797S (P00533 25-1210 C797S/L858R): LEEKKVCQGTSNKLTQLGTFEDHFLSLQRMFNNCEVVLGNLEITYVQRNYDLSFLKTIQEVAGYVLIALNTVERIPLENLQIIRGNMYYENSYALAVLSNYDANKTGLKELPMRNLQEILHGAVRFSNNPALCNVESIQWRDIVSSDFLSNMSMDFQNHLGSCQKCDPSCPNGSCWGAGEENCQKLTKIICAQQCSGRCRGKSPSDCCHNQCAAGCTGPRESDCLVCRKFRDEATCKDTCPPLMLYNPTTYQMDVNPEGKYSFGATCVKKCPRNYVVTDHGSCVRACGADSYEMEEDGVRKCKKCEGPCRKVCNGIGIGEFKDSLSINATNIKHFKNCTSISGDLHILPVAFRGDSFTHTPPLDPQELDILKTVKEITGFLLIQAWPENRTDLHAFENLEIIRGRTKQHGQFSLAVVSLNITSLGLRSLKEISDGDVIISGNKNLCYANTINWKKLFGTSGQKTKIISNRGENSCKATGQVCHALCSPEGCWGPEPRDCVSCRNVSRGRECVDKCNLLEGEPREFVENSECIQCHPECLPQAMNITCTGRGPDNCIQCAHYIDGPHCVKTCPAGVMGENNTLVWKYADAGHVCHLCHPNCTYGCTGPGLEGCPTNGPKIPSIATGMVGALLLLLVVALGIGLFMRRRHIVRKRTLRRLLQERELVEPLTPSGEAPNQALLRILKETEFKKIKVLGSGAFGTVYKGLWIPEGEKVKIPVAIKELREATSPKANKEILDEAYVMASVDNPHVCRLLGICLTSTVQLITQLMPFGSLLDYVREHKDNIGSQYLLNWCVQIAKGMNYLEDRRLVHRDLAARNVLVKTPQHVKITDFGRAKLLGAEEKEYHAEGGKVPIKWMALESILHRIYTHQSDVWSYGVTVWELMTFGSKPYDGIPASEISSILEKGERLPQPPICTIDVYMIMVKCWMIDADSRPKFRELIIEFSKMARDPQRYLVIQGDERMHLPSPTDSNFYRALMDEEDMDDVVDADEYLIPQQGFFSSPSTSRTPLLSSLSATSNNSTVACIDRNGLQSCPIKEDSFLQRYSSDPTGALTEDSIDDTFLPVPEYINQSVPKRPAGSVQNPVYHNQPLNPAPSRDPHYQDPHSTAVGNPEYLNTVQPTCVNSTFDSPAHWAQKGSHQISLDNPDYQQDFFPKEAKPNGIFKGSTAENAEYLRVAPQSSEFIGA

Regarding `O=S(=O)(C1CC1)n1cc(-c2nccc(Nc3cc(N[C@H]4CCC[C@H](CO)C4)c(-c4ccn(C(F)F)n4)cn3)n2)cn1` [Example 202, ((1S,3S)-3-((2-((2-(1-(Cyclopropylsulfonyl)-1H-pyrazol-4-yl)pyrimidin-4-yl)amino)-5-(1-(difluoromethyl)-1H-pyrazol-3-yl)pyridin-4-yl)amino)cyclohexyl)methanol], the IC50 in experiment [1] (setting [6]) was 1.3 nM; in experiment [1] (setting [7]) it was 1.1 nM; in experiment [2] (setting [8]), 1.4 nM; in experiment [2] (setting [9]) it was 0.5 nM; in experiment [3] (setting [10]), 6.6 nM; in experiment [3] (setting [11]), 1.4 nM. In addition, the IC50 in experiment [4] (setting [12]) is 17.8 nM; in experiment [4] (setting [13]), 2.7 nM; in experiment [5] (setting [14]), above 10000 nM; in experiment [5] (setting [15]), 10.6 nM.
On to `CC(=O)N1CC=C(c2nccc(Nc3cc(N[C@H]4CC[C@@](C)(O)CC4)c(-c4ccn(C(F)F)n4)cn3)n2)CC1` [Example 159, 1-(4-(4-((5-(1-(Difluoromethyl)-1H-pyrazol-3-yl)-4-(((1s,4s)-4-hydroxy-4-methylcyclohexyl)amino)pyridin-2-yl)amino)pyrimidin-2-yl)-3,6-dihydropyridin-1(2H)-yl)ethan-1-one], for which the IC50 in experiment [1] (setting [7]) worked out at 19.2 nM; in experiment [2] (setting [9]), 11.7 nM; in experiment [3] (setting [11]), 2050 nM; in experiment [4] (setting [13]), 291 nM; in experiment [5] (setting [15]) it was 327 nM.
On the same counts, the results for `COCn1ccc(-c2cnc(Nc3ccnc(-c4cnn(S(=O)(=O)C5CC5)c4)n3)cc2NC(C)C)n1` [Example 303, N^2-(2-(1-(Cyclopropylsulfonyl)-1H-pyrazol-4-yl)pyrimidin-4-yl)-N^4-isopropyl-5-(1-(methoxymethyl)-1H-pyrazol-3-yl)pyridine-2,4-diamine] are 0.6 nM, 0.3 nM, 2.2 nM, 0.2 nM and 1.7 nM.
With `CN(C)C[C@H]1CC[C@H](CNc2cc(Nc3ccnc(-c4cnn(S(=O)(=O)C5CC5)c4)n3)ncc2-c2csc(C(F)(F)F)n2)CC1` [Example 101, N^2-(2-(1-(Cyclopropylsulfonyl)-1H-pyrazol-4-yl)pyrimidin-4-yl)-N^4-(((1r,4r)-4-((dimethylamino)methyl)cyclohexyl)methyl)-5-(2-(trifluoromethyl)thiazol-4-yl)pyridine-2,4-diamine], the IC50 in experiment [1] (setting [6]) worked out at 0.3 nM; in experiment [1] (setting [7]), 0.3 nM; in experiment [2] (setting [8]), 0.3 nM; in experiment [2] (setting [9]) it was 0.1 nM; in experiment [3] (setting [10]) it was 0.4 nM; in experiment [3] (setting [11]) it was 0.4 nM. Besides, the results for the IC50 in experiment [4] (setting [12]), in experiment [4] (setting [13]) and in experiment [5] (setting [14]) were 3.8 nM, 0.8 nM and 828 nM, respectively.
Consider `CN(C)CCCn1ccc(-c2cnc(Nc3ccnc(-c4cnn(S(=O)(=O)C5CC5)c4)n3)cc2N[C@H]2CC[C@@H](CO)CC2)n1` [Example 296, ((1s,4s)-4-((2-((2-(1-(Cyclopropylsulfonyl)-1H-pyrazol-4-yl)pyrimidin-4-yl)amino)-5-(1-(3-(dimethylamino)propyl)-1H-pyrazol-3-yl)pyridin-4-yl)amino)cyclohexyl)methanol], for which the IC50 in experiment [1] (setting [6]) amounted to 0.2 nM; in experiment [1] (setting [7]) it was 0.1 nM; in experiment [2] (setting [8]) it was 0.1 nM; in experiment [2] (setting [9]) it was 0.1 nM; in experiment [3] (setting [10]) it was 0.3 nM; in experiment [3] (setting [11]) it was 0.1 nM. The IC50 in experiment [4] (setting [12]) is 0.5 nM; in experiment [4] (setting [13]) it was 0.1 nM; in experiment [5] (setting [14]), 48.8 nM; in experiment [5] (setting [15]), 0.3 nM.
Consider `CN(C)C[C@H]1CC[C@H](CNc2cc(Nc3ccnc(-c4cnn(S(=O)(=O)C5CC5)c4)n3)ncc2-c2ccn(C(F)F)n2)CC1` [Example 100, N^2-(2-(1-(Cyclopropylsulfonyl)-1H-pyrazol-4-yl)pyrimidin-4-yl)-5-(1-(difluoromethyl)-1H-pyrazol-3-yl)-N^4-(((1r,4r)-4-((dimethylamino)methyl)cyclohexyl)methyl)pyridine-2,4-diamine], for which the IC50 was determined as 0.6 nM in experiment [1] (setting [6]); 0.5 nM in experiment [1] (setting [7]); 0.5 nM in experiment [2] (setting [8]); 0.3 nM in experiment [2] (setting [9]); 0.4 nM in experiment [3] (setting [10]); 0.5 nM in experiment [3] (setting [11]). Further, the IC50 in experiment [4] (setting [12]) came to 1.4 nM; in experiment [4] (setting [13]) it was 0.3 nM; in experiment [5] (setting [14]), 582 nM; in experiment [5] (setting [15]) it was 1 nM.
Take `CN(C)S(=O)(=O)n1ccc(-c2nccc(Nc3cc(N[C@H]4CC[C@@](C)(O)CC4)c(-c4ccn(C(F)F)n4)cn3)n2)c1` [Example 109, 3-(4-((5-(1-(Difluoromethyl)-1H-pyrazol-3-yl)-4-(((1s,4s)-4-hydroxy-4-methylcyclohexyl)amino)pyridin-2-yl)amino)pyrimidin-2-yl)-N,N-dimethyl-1H-pyrrole-1-sulfonamide]: the IC50 in experiment [1] (setting [7]) came to 9.5 nM; in experiment [2] (setting [9]), 2.2 nM; in experiment [3] (setting [11]), 178 nM; in experiment [4] (setting [13]) it was 14.5 nM; in experiment [5] (setting [15]) it was 538 nM.
With `CC1(O)CCC(Nc2cc(Nc3ccnc(N4CC(O)C(F)(F)C4)n3)ncc2-c2ccn(C(F)F)n2)CC1` (stereo not shown) [Example 349, 1-(4-((5-(1-(Difluoromethyl)-1H-pyrazol-3-yl)-4-(((1s,4s)-4-hydroxy-4-methylcyclohexyl)amino)pyridin-2-yl)amino)pyrimidin-2-yl)-4,4-difluoropyrrolidin-3-ol], the IC50 was 1 nM in experiment [1] (IC50 del19/T790M/C797S, 100 μM ATP); 2.4 nM in experiment [1] (Km ATP, read-out: IC50 del19/T790M/C797S, Km ATP); 2.8 nM in experiment [2] (IC50 L858R/T790M/C797S, 100 μM ATP); 0.3 nM in experiment [2] (Km ATP, read-out: IC50 L858R/T790M/C797S, Km ATP); 276 nM in experiment [3] (IC50 del19/C797S, 100 μM ATP); 53.7 nM in experiment [3] (Km ATP, read-out: IC50 del19/C797S, Km ATP). In addition, the IC50 is 304 nM in experiment [4] (IC50 L858R/C797S, 100 μM ATP); 77.2 nM in experiment [4] (Km ATP, read-out: IC50 L858R/C797S, Km ATP); above 10000 nM in experiment [5] (IC50 WT, 100 μM ATP); 189 nM in experiment [5] (Km ATP, read-out: IC50 WT, Km ATP).
Regarding `CC(C)(O)[C@H]1CC[C@@H](Nc2cc(Nc3ccnc(-c4cnn(S(=O)(=O)C5CC5)c4)n3)ncc2-c2ccn(C(F)F)n2)CC1` [Example 8, 2-((1s,4s)-4-((2-((2-(1-(Cyclopropylsulfonyl)-1H-pyrazol-4-yl)pyrimidin-4-yl)amino)-5-(1-(difluoromethyl)-1H-pyrazol-3-yl)pyridin-4-yl)amino)cyclohexyl)propan-2-ol], the IC50 in experiment [1] (setting [6]) was 5.5 nM; in experiment [2] (setting [8]), 5.7 nM; in experiment [3] (setting [10]) it was 18.8 nM; in experiment [4] (setting [12]) it was 21.9 nM; in experiment [5] (setting [14]), above 10000 nM.
As for `CC(C)(O)[C@H]1CC[C@@H](Nc2cc(Nc3ccnc(-c4cnn(S(=O)(=O)C5CC5)c4)n3)ncc2-c2ccn(CCC(F)(F)F)n2)CC1` [Example 300, 2-((1s,4s)-4-((2-((2-(1-(Cyclopropylsulfonyl)-1H-pyrazol-4-yl)pyrimidin-4-yl)amino)-5-(1-(3,3,3-trifluoropropyl)-1H-pyrazol-3-yl)pyridin-4-yl)amino)cyclohexyl)propan-2-ol], the IC50 was found to be 1.3 nM in experiment [1] (setting [7]); 0.8 nM in experiment [2] (setting [9]); 32.6 nM in experiment [3] (setting [11]); 0.5 nM in experiment [4] (setting [13]); 44.8 nM in experiment [5] (setting [15]).
On to `O=C1CC[C@]2(CC[C@H](Nc3cc(Nc4ccnc(-c5cnn(S(=O)(=O)C6CC6)c5)n4)ncc3-c3ccn(C(F)F)n3)CC2)N1` [Example 19, (5s,8s)-8-((2-((2-(1-(Cyclopropylsulfonyl)-1H-pyrazol-4-yl)pyrimidin-4-yl)amino)-5-(1-(difluoromethyl)-1H-pyrazol-3-yl)pyridin-4-yl)amino)-1-azaspiro[4.5]decan-2-one], for which the IC50 was 0.3 nM in experiment [1] (setting [6]); 0.3 nM in experiment [1] (setting [7]); 0.5 nM in experiment [2] (setting [8]); 0.1 nM in experiment [2] (setting [9]); 0.7 nM in experiment [3] (setting [10]); 0.5 nM in experiment [3] (setting [11]). Besides, the IC50 in experiment [4] (setting [12]) is 3.5 nM; in experiment [4] (setting [13]) it was 0.7 nM; in experiment [5] (setting [14]), above 10000 nM; in experiment [5] (setting [15]) it was 10 nM.
On to `O=S(=O)(C1CC1)n1cc(-c2nccc(Nc3cc(N[C@H]4CC[C@@H](NCCF)CC4)c(-c4cc5n(n4)CCCC5)cn3)n2)cn1` [Example 62, N^2-(2-(1-(Cyclopropylsulfonyl)-1H-pyrazol-4-yl)pyrimidin-4-yl)-N^4-((1s,4s)-4-((2-fluoroethyl)amino)cyclohexyl)-5-(4,5,6,7-tetrahydropyrazolo[1,5-a]pyridin-2-yl)pyridine-2,4-diamine], for which the IC50 in experiment [1] (setting [6]) is 0.3 nM; in experiment [1] (setting [7]) it was 0.2 nM; in experiment [2] (setting [8]) it was 0.2 nM; in experiment [2] (setting [9]), 0.1 nM; in experiment [3] (setting [10]), 0.5 nM; in experiment [3] (setting [11]) it was 0.2 nM. Besides, the IC50 is 1.9 nM in experiment [4] (setting [12]), 0.2 nM in experiment [4] (setting [13]), 617 nM in experiment [5] (setting [14]) and 1.1 nM in experiment [5] (setting [15]).

These data come from US12258327B2, “5-membered heteroaryl-containing aminopyridine compounds as EGFR inhibitors” (YUHAN CORPORATION, priority 2021, dated 2025).
